Earlier results as cited in patent publication US20080119448A1, “Methods of treating an ocular allergy with low dose dexamethasone” (priority 2006, published 2008).

Details: dexamethasone at 0.1%

- effect on intraocular pressure: increase in intraocular pressure
Compound: C[C@@H]1C[C@H]2[C@@H]3CCC4=CC(=O)C=C[C@]4(C)[C@@]3(F)[C@@H](O)C[C@]2(C)[C@@]1(O)C(=O)CO [dexamethasone]
